Measured values from EP0472573B1, “HERBICIDE RESISTANT MAIZE” (ZENECA LIMITED, priority 1989, dated 1990).
Where two headings read alike, the source gives them in different places.

Assays:
Type in all cases: biochemical, Zea mays
[1] = target: ALS (acetolactate synthase), Wild type; assay: ALS enzyme assay, wild-type control; details: read-out: ID50% (the source's name)
Procedure: (§1) Seeds of generation M₁BC₁ M₁BC₂ of the nine mutants were sprayed pre-emergence with the herbicide imazethapyr (PURSUIT) (Trade Mark) at a rate of 250 g/ha and grown in a growth chamber (16 hour day, 27°C; 8 hour night, 17°C). Plants were harvested after 11 days.
(§2) Four grams of leaf material were harvested from just above the first leaf axis and ground in a mortar and pestle in 20ml of a solution containing 40mM Tricine (Trade Mark), 10mM EDTA, 5mM pyruvate, 80 »M flavin adenine dinucleotide (FAD), 1mM dithiothreitol (DTT), pH 8, plus 0.8g Polyclar AT. The homogenate was pressed through four layers of muslin and centrifuged at 30,000g for 20 minutes.
(§3) The supernatant was brought to 65% saturation with ammonium sulphate, left to precipitate for 30 minutes and then centrifuged at 30.000g for 20 minutes. The pellet was resuspended in 2.5ml of 40mM Tricine, 10mM EDTA, 5mM pyruvate, 80»M FAD, 25% (v/v) glycerol, 1mM DTT, pH 8, and desalted into 3.5ml of 40mM Tricine, 10mM EDTA, 25% (v/v) glycerol, 1mM DTT, pH 8.
(§4) One hundred microlitres of the enzyme extract was used for each assay. Final reagent concentrations were: 120mM Tricine, 50mM pyruvate, 10mM MgCl₂, […], 93»M thiamine pyrophosphate (TPP), pH 8, in the presence or absence of a herbicide of interest, in a volume of 750 »l. Incubations were carried out at 37°C for 30 minutes. Reactions were stopped with 250»l of 1.84M sulphuric acid, and decarboxylation of the acetolactate carried out at 37°C for 75 minutes, or at 60°C for 30 minutes. Assay blanks had sulphuric acid added prior to the enzyme extract. To the samples and blanks 650»l of α-naphthol in 2.73M NaOH/0.16%(w/v) creatine were added followed by incubation at 37°C for 30 minutes. After centrifugation at 30,000g the optical density of the supernatant was read at 540nm.
(§5) The assay procedure described was carried out on ALS enzyme extracted from each of the nine mutants for the following herbicides: imazethapyr (PURSUIT) imazapyr (ARSENAL) imazaquin (SCEPTER) chlorsulfuron (GLEAN) chlorimuron (CLASSIC) […] (HARMONY) The enzyme activity graphs are given as Figures 3 to 8. In addition, homozygous lines of mutants 1 and 2 which were selected from generation M₁BC₁S₂, were also tested against the same group of herbicides and against representatives of the triazolopyrimidines and phenoxypyrimidines. The chemical structures of these herbicides are shown in Figure 2 of the accompanying drawings.
(§6) From the enzyme assay data it is possible to derive, as a measure of the degree of inhibition the factor ID50% for each mutant and for each herbicide. This factor is indicative of the herbicide concentration which gives 50% inhibition of the ALS activity in comparison with the wild-type control. It is also possible to derive the fold increase in resistance.

[2] = target: ALS enzyme extracted from Mutant 2 (heterozygous); assay: ALS enzyme assay, heterozygous Mutant 2; details: for IC50: ALS of heterozygous Mutant 2, read-out: ID50% (the source's name); for resistance group, Enzyme Assay: Mutant 2, groups Strong, Intermediate, Weak, Zero; for Fold Increase: fold increase in resistance vs wild type, heterozygous Mutant 2, 30 min
Procedure: as §1, §2, §3, §4, §5, §6

[3] = target: ALS enzyme extracted from Mutant 5 (heterozygous); assay: ALS enzyme assay, heterozygous Mutant 5; details: for IC50: ALS of heterozygous Mutant 5, read-out: ID50% (the source's name); for resistance group, Enzyme Assay: Mutant 5, groups Strong, Intermediate, Weak, Zero; for Fold Increase: fold increase in resistance vs wild type, heterozygous Mutant 5, 30 min
Procedure: as §1, §2, §3, §4, §5, §6

[4] = target: ALS enzyme extracted from Mutant 6 (heterozygous); assay: ALS enzyme assay, heterozygous Mutant 6; details: for IC50: ALS of heterozygous Mutant 6, read-out: ID50% (the source's name); for resistance group, Enzyme Assay: Mutant 6, groups Strong, Intermediate, Weak, Zero; for Fold Increase: fold increase in resistance vs wild type, heterozygous Mutant 6, 30 min
Procedure: as §1, §2, §3, §4, §5, §6

[5] = target: ALS enzyme extracted from Mutant 8 (heterozygous); assay: ALS enzyme assay, heterozygous Mutant 8; details: for IC50: ALS of heterozygous Mutant 8, read-out: ID50% (the source's name); for resistance group, Enzyme Assay: Mutant 8, groups Strong, Intermediate, Weak, Zero; for Fold Increase: fold increase in resistance vs wild type, heterozygous Mutant 8, 30 min
Procedure: as §1, §2, §3, §4, §5, §6

[6] = target: ALS enzyme extracted from Mutant 10 (heterozygous); assay: ALS enzyme assay, heterozygous Mutant 10; details: for IC50: ALS of heterozygous Mutant 10, read-out: ID50% (the source's name); for resistance group, Enzyme Assay: Mutant 10, groups Strong, Intermediate, Weak, Zero; for Fold Increase: fold increase in resistance vs wild type, heterozygous Mutant 10, 30 min
Procedure: as §1, §2, §3, §4, §5, §6

[7] = herbicide concentration giving 50% inhibition of ALS activity

SMILES | IC50 [1] [µM] | IC50 [2] [µM] | resistance group, Enzyme Assay [2] | Fold Increase [2] | IC50 [3] [µM] | resistance group, Enzyme Assay [3] | Fold Increase [3] | IC50 [4] [µM] | resistance group, Enzyme Assay [4] | Fold Increase [4] | IC50 [5] [µM] | resistance group, Enzyme Assay [5] | Fold Increase [5] | IC50 [6] [µM] | resistance group, Enzyme Assay [6] | Fold Increase [6] | IC50 [1, 7] [µM]
COc1nc(C)nc(NC(=O)NS(=O)(=O)c2ccccc2Cl)n1 [Chlorsulfuron, chlorsulfuron] | 0.0185 | 0.065 | Weak | 4 | 0.04 | Weak | 2 | 0.065 | Weak | 4 | 0.075 | Weak | 4 | 0.035 | Weak | 2 | –
CC(C)C1(C)N=C(c2nc3ccccc3cc2C(=O)O)NC1=O (stereo not shown) [Imazaquin, imazaquin] | – | 20 | Intermediate | 33 | 25 | Intermediate | 42 | 1.5 | Weak | 2 | 150 | Strong | 250 | 7 | Weak | 12 | 0.6
COc1cc(Cl)nc(NC(=O)NS(=O)(=O)c2ccccc2C(=O)O)n1 [Chlorimuron, chlorimuron] | 0.0037 | 0.01 | Weak | 3 | 0.017 | Weak | 5 | 0.015 | Weak | 4 | 0.01 | Zero | 3 | 0.017 | Intermediate | 5 | –
CCc1cnc(C2=NC(=O)C(C)(C(C)C)N2)c(C(=O)O)c1 (stereo not shown) [Imazethapyr, 5-ethyl-2-(5-iso-propyl-5-methyl-4-oxo-2-imidazolin-2-yl) nicotinic acid] | – | 230 | Intermediate | 153 | 125 | Intermediate | 83 | 60 | Weak | 40 | > 1000 | Strong | >660 | 15 | Intermediate | 10 | 1.5
